2 compounds from patent publication US9376449B2, “Indole carboxamide derivative” (Astellas Pharma Inc., priority 2012, dated 2016) can be followed below.

In data set [1] the test system is isolated urethra. Nature of the data set: Test confirming that urethra contractile action by ramelteon is through MT1 and/or MT2 receptor (Luzindole). Also on record: species or system rat. The note with it: ramelteon 1 μM; solvent added instead of Luzindole; first contraction by ramelteon as 100%. On the procedure: (2) Test for Confirming that Urethra Contractile Action is Action Through MT1 and/or MT2 Receptor
The urethra was isolated from an SD female rat having a body weight of 100 to 500 g. The isolated urethra was incised longitudinally to give a rectangular strip specimen having a width of about 3 mm, which was suspended in the muscle parallel to the circular to 10 mL of a tissue bath filled with a Krebs-Henseleit solution (pH 7.4). […] The resting tension was set to 0.5 g to record the isometric contraction. After the resting tension was stabilized, contraction was elicited by the addition of 10 μM phenylephrine. After washing and stabilizing, the test compound (ramelteon) at 1 μM was added to measure a contractile response. After washing and stabilizing, a solvent or Luzindole (purchased from Wako Pure Chemical Industries, Ltd.) (0.1 μM, 1 μM, or 10 μM) was added to the same specimen, and after 20 minutes, ramelteon at 1 μM was added again thereto to measure a contractile reaction. When the first contraction by ramelteon at 1 μM was taken as 100%, the second contractile rate by ramelteon was measured.

The melting point is the temperature, or range, at which the solid turns liquid.

As to `CCC(=O)NCC[C@@H]1CCc2ccc3c(c21)CCO3` [Ramelteon, reference compound], in data set [1], the “Second contractile rate by ramelteon (%)” value is 98 ± 10%.
`CNC(=O)c1[nH]c2ccc(OC)cc2c1CCNC(=O)C(F)F` [Ex 2, 3-{2-[(difluoroacetyl)amino]ethyl}-5-methoxy-N-methyl-1H-indole-2-carboxamide] gave a melting point of 212 to 215 °C.
